PubChem BioAssay (NCI)
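These data come from cells grown in 96-well plates and exposed to compound for 48 hours at five concentrations. GI50 is the concentration that inhibits growth by half. TGI is the concentration that stops growth completely.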

Columns and labels:
Assay in all cases: NCI anticancer screen, dose series, 48 h
TK-10 renal = system: TK-10 renal
SR leukemia = system: SR leukemia
SNB-75 CNS = system: SNB-75 CNS
786-0 renal = system: 786-0 renal
CAKI-1 renal = system: CAKI-1 renal
RPMI-8226 leukemia = system: RPMI-8226 leukemia
COLO 205 colon = system: COLO 205 colon
SF-295 CNS = system: SF-295 CNS
HOP-92 NSCLC = system: HOP-92 NSCLC

| Molecule | TGI (TK-10 renal) [µM] | TGI (SR leukemia) [µM] | TGI (SNB-75 CNS) [µM] | TGI (786-0 renal) [µM] | TGI (CAKI-1 renal) [µM] | TGI (RPMI-8226 leukemia) [µM] | TGI (COLO 205 colon) [µM] | TGI (SF-295 CNS) [µM] | GI50 (TK-10 renal) [µM] | GI50 (SR leukemia) [µM] | GI50 (CAKI-1 renal) [µM] | GI50 (HOP-92 NSCLC) [µM] | TGI (HOP-92 NSCLC) [µM] | GI50 (RPMI-8226 leukemia) [µM] | GI50 (COLO 205 colon) [µM] | GI50 (SF-295 CNS) [µM] | GI50 (SNB-75 CNS) [µM] |
| --- | --- | --- | --- | --- | --- | --- | --- | --- | --- | --- | --- | --- | --- | --- | --- | --- | --- |
| C=C1CC2C[C@H](OS(=O)(=O)c3ccc(C)cc3)C(C1)N2C (stereo partly drawn) | > 100 | > 100 | > 100 | > 100 | > 100 | > 100 | > 100 | > 100 |  |  |  |  |  |  |  |  |  |
| Cc1cc(S(=O)(=O)Nc2n[nH]c(N)n2)c(S)cc1Cl | > 10 |  | > 10 | > 10 | > 10 | > 10 | > 10 | > 10 |  |  |  |  |  |  |  |  |  |
| COc1ccc(Nc2ccnc3cc(Cl)ccc23)cc1CN(CCCl)CCCl | > 20.7 | 0.699 |  |  | 0.933 | 4.85 | 3.56 | 3.31 | 2.02 | 0.158 | 0.262 | 1.17 | 5.53 | 1.15 | 1.39 | 0.804 |  |
| CO/C=C(/C(=O)OC)c1ccccc1[C@H]1C[C@@H]1c1ccccc1 | > 100 | 76.5 |  | > 100 | 52.6 | 38.1 | 27.6 | 98.2 |  |  |  |  | 92.4 |  |  |  |  |
| CC1CN=C(N(C(=O)Nc2ccccc2)C2CCCCC2)S1 (stereo not drawn) | 37 | 35.1 | 28.9 | 31.4 | 31.2 | 49.7 | 37 | 31.8 |  |  |  |  |  |  |  |  |  |
| NC(=O)c1nnc2c(F)cccc2c1N | > 100 | > 100 | > 100 | > 100 | > 100 | > 100 | > 100 | > 100 |  |  |  |  |  |  |  |  |  |
| CC1C/C(=C\c2ccc(O)c(O)c2)C(=O)/C(=C/c2ccc(O)c(O)c2)C1 (stereo not drawn) | > 100 | 14 | 16.7 |  | 18.1 |  | 32.2 | 27.7 |  |  |  |  | 18.7 |  |  |  |  |
| Cc1cccc2c1C(=O)/C(=C/c1ccccc1C(=O)O)C2 | > 100 |  | > 100 | > 100 | > 100 | > 100 | > 100 | > 100 |  |  |  |  | > 100 |  |  |  |  |
| CCOC(=O)N1c2c(c3ccccc3n2C(=O)OCC)C(=O)C(OC)N1C(=O)OCC (stereo not drawn) | > 100 | 45.1 |  | > 100 | 93.9 | > 100 | 28.9 | 59.4 |  |  |  |  | > 100 |  |  |  |  |
| CC(=O)c1nc(C#N)c(N)o1 | > 100 |  | > 100 | > 100 | > 100 | > 100 | > 100 | > 100 |  |  |  |  | > 100 |  |  |  |  |
| CC(=O)c1c2c(cc3c1CCC3)CCC2 | > 100 | > 100 | > 100 | > 100 | > 100 | > 100 | > 100 | > 100 |  |  |  |  |  |  |  |  |  |
| H-KIFKKFKTIIKKVWRIFGRF-NH2 |  | > 100 | 6.99 |  |  | > 100 |  | 4.68 |  | 2.72 |  | 2 | 4.67 | 3.11 |  | 2.05 | 2.5 |
| Nc1nn2cc(-c3ccccc3)[n+](CC(=O)c3ccccc3)c2s1 | > 100 | 48 |  | 40.2 | > 100 | 37.3 | 29.3 | > 100 |  |  |  |  | 35.4 |  |  |  |  |
| Oc1[nH]c2ccccc2c1N=NC(=S)NCc1ccccn1 | 18.3 |  | 6.6 | 13.6 | 11.7 | 53.9 | 13.6 | 18 |  |  |  |  | 18.1 |  |  |  |  |
| CC(C)(C)C1=CC(O)(c2c3ccccc3c(C3(O)C=C(C(C)(C)C)C(=O)C(C(C)(C)C)=C3)c3ccccc23)C=C(C(C)(C)C)C1=O | > 100 |  | > 100 | > 100 | > 100 | > 100 | > 100 | > 100 |  |  |  |  | 0.028 |  |  |  |  |
| Cc1cnc2cc(Cl)ccc2c1SCC(=O)O | > 100 | > 100 |  | > 100 | > 100 | > 100 |  | > 100 |  |  |  |  | > 100 |  |  |  |  |
| c1ccc2c(c1)[C@@H]1O[C@@H]1[C@@]13O[C@@]21[C@H]1O[C@H]1c1ccccc13 | 62.2 |  | 27.2 | 30.1 | 23.2 | 33.7 | 32.8 | 30.1 |  |  |  |  | 23.4 |  |  |  |  |
| Oc1cccc(-c2cn3cc(Cl)ccc3n2)c1 | > 100 | > 100 |  | > 100 | > 100 |  | > 100 | > 100 |  |  |  |  | > 100 |  |  |  |  |
| O=C1/C(=C/Cc2ccco2)N=C(c2ccccc2)N1c1nc2c(Cl)cc(Cl)cc2s1 | > 100 | 38.7 |  | > 100 | > 100 | 35.4 | > 100 | > 100 |  |  |  |  | 87.4 |  |  |  |  |
| Nc1nc(Cl)cc(NCC2CC(O)(CO)C2)n1 (stereo not drawn) | > 100 |  | > 100 | > 100 | > 100 | > 100 | > 100 | > 100 |  |  |  |  | > 100 |  |  |  |  |

| Molecule | TGI (TK-10 renal) [µM] | TGI (SR leukemia) [µM] | TGI (SNB-75 CNS) [µM] | TGI (786-0 renal) [µM] | TGI (CAKI-1 renal) [µM] | TGI (RPMI-8226 leukemia) [µM] | TGI (COLO 205 colon) [µM] | TGI (SF-295 CNS) [µM] | GI50 (TK-10 renal) [µM] | GI50 (SR leukemia) [µM] | GI50 (CAKI-1 renal) [µM] | GI50 (HOP-92 NSCLC) [µM] | TGI (HOP-92 NSCLC) [µM] | GI50 (RPMI-8226 leukemia) [µM] | GI50 (COLO 205 colon) [µM] | GI50 (SF-295 CNS) [µM] | GI50 (SNB-75 CNS) [µM] |
| --- | --- | --- | --- | --- | --- | --- | --- | --- | --- | --- | --- | --- | --- | --- | --- | --- | --- |
| COC1OC2COC(c3ccccc3)OC2C(OC(=S)c2ccccc2)C1O (stereo not drawn) | > 100 | > 100 |  |  | > 100 | > 100 | > 100 | > 100 |  |  |  |  | > 100 |  |  |  |  |
| O=C(O)CCC(NC(=O)/C(=C/c1ccccc1)NC(=O)c1ccccc1)C(=O)O (stereo not drawn) | > 100 |  | > 100 | > 100 | > 100 | > 100 | > 100 | > 100 |  |  |  |  | > 100 |  |  |  |  |
| CC(C)c1cc(C(C)C)c(B(c2ccccc2)c2ccccc2)c(C(C)C)c1Br | > 100 | > 100 |  | > 100 | > 100 |  | > 100 | > 100 |  |  |  |  | > 100 |  |  |  |  |
| O=C(c1cccs1)N(C(=O)N1CCCCC1)c1ccccc1 | > 100 |  | 88.7 | > 100 | > 100 | > 100 | > 100 | > 100 |  |  |  |  |  |  |  |  |  |
| CC1CC/C(=C\c2ccc(F)cc2)C2=C1C(c1ccc(F)cc1)NC(=S)N2 (stereo not drawn) | > 100 |  |  | > 100 | > 100 | > 100 | > 100 | > 100 |  |  |  |  |  |  |  |  |  |
| C[C@@H]1CC(=O)[C@@]2(C)[C@](O)(CCC3O[C@]32C)[C@@]12CC(c1ccoc1)OC2=O (stereo partly drawn) | > 100 | 68.5 | > 100 | > 100 | > 100 | > 100 | > 100 | > 100 |  |  |  |  |  |  |  |  |  |
| c1ccc(C2C3=C(CCCC3)Nc3nnnn32)cc1 (stereo not drawn) |  | > 100 |  | > 100 | > 100 |  | > 100 | > 100 |  |  |  |  |  |  |  |  |  |
| S=C1NNC(=S)NN1 | > 1 | 0.671 |  | > 1 | 0.475 | > 1 | > 1 | 0.486 |  |  |  |  | > 1 |  |  |  |  |
| C(=N\Nc1nnc(-c2nnc(N/N=C/c3ccccc3)o2)o1)/c1ccccc1 | > 10 | > 10 |  | > 10 | > 10 | > 10 | > 10 | > 10 |  |  |  |  | > 10 |  |  |  |  |
| NS(=O)(=O)c1ccc(NS(=O)(=O)c2ccc(NC(=O)N(c3ccccc3)c3ccccc3)cc2)cc1 | > 100 |  |  | > 100 | > 100 | 94.9 | > 100 | > 100 |  |  |  |  | > 100 |  |  |  |  |
| COc1ccc(Cn2nc(OCc3ccccc3)c3cc([N+](=O)[O-])ccc32)cc1 | > 100 | > 100 | > 100 | > 100 |  | > 100 |  | > 100 |  |  |  |  |  |  |  |  |  |
| C/C(=C\c1ccccc1)n1c(=O)cc(C)n1C | > 100 |  | > 100 |  | > 100 | > 100 | > 100 | > 100 |  |  |  |  | > 100 |  |  |  |  |
| CC(NC1=NCCO1)c1ccco1 (stereo not drawn) | > 100 | > 100 |  | > 100 | > 100 | > 100 | > 100 | > 100 |  |  |  |  | > 100 |  |  |  |  |
| N#Cc1nc(C(=O)c2ccccc2)oc1N | > 100 |  | 8.45 | > 100 | > 100 | > 100 |  |  |  |  |  |  | > 100 |  |  |  |  |
| CCOC(=O)c1sc2[n+](c1C)C(=O)/C(=C/c1ccccc1Cl)S2 | 57 | 17 | > 54.3 | 26.1 | 24.5 | 15.7 | 9.85 | 4.75 |  |  |  |  |  |  |  |  |  |
| O=S1(=O)OCCOS(=O)(=O)C1S(=O)(=O)c1cccc2ccccc12 |  | > 100 |  | > 100 | > 100 | > 100 | > 100 | > 100 |  |  |  |  | > 100 |  |  |  |  |
| COc1ccc(OC)c([N+](=O)[O-])c1-c1nc2sc(C)cn2c1/C=N/N=C(N)N | 43.3 |  |  | > 100 | 84.1 | > 100 |  | 57.1 |  |  |  |  | 47.8 |  |  |  |  |
| CC(=O)O[C@H]1CC[C@]2(C=O)[C@H]3CC[C@]4(C)[C@@H](C5=CC(=O)OC5)CC[C@]4(O)[C@@H]3CC[C@]2(O)C1 | 0.93 | > 100 |  |  | 0.06 | 3.21 | 1.64 | 0.853 |  |  |  |  | 2.76 |  |  |  |  |
| CC(=O)OCC12C(OC(C)=O)C[C@@H](C)C3(CC(c4ccoc4)OC3=O)C1CCC(OC(C)=O)C21CO1 (stereo partly drawn) | > 100 |  | > 100 | > 100 | > 100 | > 100 | > 100 | > 100 |  |  |  |  | > 100 |  |  |  |  |
